The values that follow come from patent US10508120B2, “TYK2 inhibitors and uses thereof” (Nimbus Lakshmi, Inc., priority 2017, dated 2019).

For this test, the target named is human TYK2 (JH2domain-pseudokinase) (Homo sapiens (Human), UniProt P29597). The test can be described thus: TYK2 JH2 Domain Binding Assay (KINOMEscan). On the procedure: Binding constants for compounds of the present invention against the JH2 domain were determined by the following protocol for a KINOMEscan® assay (DiscoveRx). A fusion protein of a partial length construct of human TYK2 (JH2domain-pseudokinase) (amino acids G556 to D888 based on reference sequence NP_003322.3) and the DNA binding domain of NFkB was expressed in transiently transfected HEK293 cells. From these HEK 293 cells, extracts were prepared in M-PER extraction buffer (Pierce) in the presence of Protease Inhibitor Cocktail Complete (Roche) and Phosphatase Inhibitor Cocktail Set II (Merck) per manufacturers' instructions. The TYK2 (JH2domain-pseudokinase) fusion protein was labeled with a chimeric double-stranded DNA tag containing the NFkB binding site (5′-[…]-3′) fused to an amplicon for qPCR readout, which was added directly to the expression extract (the final concentration of DNA-tag in the binding reaction is 0.1 nM).
Chain of human TYK2 (JH2domain-pseudokinase) (P29597 556-888): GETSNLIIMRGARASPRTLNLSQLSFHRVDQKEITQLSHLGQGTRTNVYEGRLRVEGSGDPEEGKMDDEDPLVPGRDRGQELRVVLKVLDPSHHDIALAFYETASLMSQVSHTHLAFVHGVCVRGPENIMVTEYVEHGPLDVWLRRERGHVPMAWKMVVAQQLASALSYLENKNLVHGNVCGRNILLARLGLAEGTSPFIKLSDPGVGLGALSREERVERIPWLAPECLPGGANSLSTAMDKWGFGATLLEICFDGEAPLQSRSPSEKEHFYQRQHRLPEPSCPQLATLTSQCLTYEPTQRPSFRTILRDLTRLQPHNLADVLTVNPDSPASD
The liganded beads were blocked with excess biotin and washed with blocking buffer (SeaBlock (Pierce), 1% BSA, 0.05% Tween 20, 1 mM DTT) to remove unbound ligand and to reduce nonspecific binding.
Extracts were used directly in binding assays without any enzyme purification steps at a ≥10,000-fold overall stock dilution (final DNA-tagged enzyme concentration <0.1 nM). Extracts were loaded with DNA-tag and diluted into the binding reaction in a two step process. First extracts were diluted 1:100 in 1× binding buffer (PBS/0.05% Tween 20/10 mM DTT/0.1% BSA/2 μg/ml sonicated salmon sperm DNA) containing 10 nM DNA-tag. This dilution was allowed to equilibrate at room temperature for 15 minutes and then subsequently diluted 1:100 in 1× binding buffer. […] Kds were determined using an 11-point 3-fold compound dilution series with three DMSO control points. […] The compounds were then diluted directly into the assays such that the final concentration of DMSO was 0.9%. All reactions performed in polypropylene 384-well plates. Each was a final volume of 0.02 mL. Assays were incubated with shaking for 1 hour at room temperature. Then the beads were pelleted and washed with wash buffer (1×PBS, 0.05% Tween 20) to remove displaced kinase and test compound. […] The qPCR protocol consisted of a 10 minute hot start at 95° C., followed by 35 cycles of 95° C. for 15 seconds, 60° C. for 1 minute.
Kds were determined using an 11-point 3-fold compound dilution series with three DMSO control points. […] The compounds were then diluted directly into the assays such that the final concentration of DMSO was 0.9%. The Kds were determined using a compound top concentration of 30,000 nM. Kd measurements were performed in duplicate.
Binding constants (Kds) were calculated with a standard dose-response curve using the Hill equation: […]
The Hill Slope was set to −1.

Structures are written as SMILES.

The Kd is a measure of binding affinity in units of concentration. A high value points to lower affinity. For `CNc1cc(Nc2cccn(-c3ccccn3)c2=O)nc2c(C(=O)N[C@H]3C[C@@H]3OC)cnn12` [I-1287], the Kd is under 0.2 nM.

The compound `CNc1cc(Nc2cccn3ccnc23)nc2c(C(=O)N[C@H]3CCC[C@]3(C)O)cnn12` [I-1316] registered a Kd of 1 to 10 nM.

In turn, `CNc1cc(Nc2cccn(-c3nn(C)cc3F)c2=O)nc2c(C(=O)NC3CC3)cnn12` [I-1275] gave a Kd of under 0.2 nM.

In turn, `CNc1cc(Nc2cccn(-c3nc(C)co3)c2=O)nc2c(C(=O)NC(C)(C)C#N)cnn12` [I-1260] yielded a Kd of 0.2 to 1 nM.

Consider `CNc1cc(Nc2cccn(C3CC(F)(F)C3)c2=O)nc2c(C(=O)N[C@@H]3CC[C@H](O)C3)cnn12` [I-1212], for which the Kd was over 10 nM.

For the compound `CNc1cc(-c2cn([C@H]3CCC[C@@H]3OC)c3ncccc23)nc2c(C(=O)N[C@H]3CC[C@H]3O)cnn12` [I-1223, N-((1S,2R)-2-hydroxycyclobutyl)-5-(1-((1S,2S)-2-methoxycyclopentyl)-1H-pyrrolo[2,3-b]pyridin-3-yl)-7-(methylamino)pyrazolo[1,5-a]pyrimidine-3-carboxamide], the equilibrium dissociation constant (Kd) lay within 0.2 to 1 nM.

`CNc1cc(Nc2cccn([C@H]3C[C@@H]3OC)c2=O)nc2c(C(=O)N[C@@H]3CC[C@H]3OC)cnn12` [I-1186] yielded a Kd of under 0.2 nM.

In the case of `CNc1cc(-c2cn(C(C)C)c3ncccc23)nc2c(C(=O)N[C@H]3CC[C@@]3(C)O)cnn12` [I-1327], the Kd was under 0.2 nM.

The compound `CNc1cc(Nc2cccn([C@H]3CCC[C@@H](C#N)C3)c2=O)nc2c(C(=O)NC3CC3)cnn12` [I-1245] came in with a Kd of 0.2 to 1 nM.

Compound `CNc1cc(-c2cn(CCCO)c3ncc(F)cc23)nc2c(C(=O)N[C@H]3CC[C@@H]3OC)cnn12` [I-1230] gave a Kd of 0.2 to 1 nM.

In the case of `CNc1cc(Nc2cccn(C(C)C)c2=O)nc2c(C(=O)N[C@H]3CCC[C@]3(C)O)cnn12` [I-1241], the Kd is under 0.2 nM.

`CNc1cc(Nc2cccn(C3CCOCC3)c2=O)nc2c(C(=O)N[C@H]3CCCC[C@]3(C)O)cnn12` [I-1197]: the Kd is under 0.2 nM.

`CNc1cc(Nc2cccn([C@H]3C[C@@H]3F)c2=O)nc2c(C(=O)N[C@H]3CC[C@@H]3OC)cnn12` [I-1204] displayed a dissociation constant Kd of under 0.2 nM.

The compound `CNc1cc(Nc2cccn([C@H]3C[C@@H]3OC)c2=O)nc2c(C(=O)N[C@H]3CC[C@@H]3OC)cnn12` [I-1187] displayed a Kd of under 0.2 nM.

For `CNc1cc(Nc2cccn([C@@H]3CCC[C@@H]3O)c2=O)nc2c(C(=O)N[C@@H]3CC[C@H]3OC)cnn12` [I-1393], the Kd was under 0.2 nM.

Take `CNc1cc(Nc2cccn([C@@H]3CCCOC3)c2=O)nc2c(C(=O)N[C@@H]3C[C@H]3OC)cnn12` [I-1269]: the Kd was in the range of 0.2 to 1 nM.

Take `CNc1cc(Nc2cccn(C3CC(F)(F)C3)c2=O)nc2c(C(=O)N[C@@H]3CC[C@@H]3O)cnn12` [I-1305]: the Kd lay within 0.2 to 1 nM.

With `CNc1cc(Nc2cccn(C3CCOCC3)c2=O)nc2c(C(=O)N[C@@H]3CCC[C@@H](O)C3)cnn12` [I-1290], the dissociation constant (Kd) is over 10 nM.

In turn, `CNc1cc(Nc2cccn([C@H]3CCCN(CCC#N)C3)c2=O)nc2c(C(=O)NC3CC3)cnn12` [I-1347, (S)-5-((1-(1-(2-cyanoethyl)piperidin-3-yl)-2-oxo-1,2-dihydropyridin-3-yl)amino)-N-cyclopropyl-7-(methylamino)pyrazolo[1,5-a]pyrimidine-3-carboxamide] gave a Kd of 1 to 10 nM.

For `CNc1cc(Nc2cccn(C3CCOCC3)c2=O)nc2c(C(=O)N[C@@H]3CC[C@@H](OC)C3)cnn12` [I-1195], the Kd is 1 to 10 nM.

For `CNc1cc(Nc2cccn(C(C)C)c2=O)nc2c(C(=O)N[C@H]3CCCC[C@]3(C)O)cnn12` [I-1277], the Kd was under 0.2 nM.

`CNc1cc(Nc2cccn([C@H]3C[C@@H]3OC)c2=O)nc2c(C(=O)NC3CC3)cnn12` [I-1228] came in with a Kd of 1 to 10 nM.

As for `CNc1cc(Nc2cccn([C@@H]3CCCOC3)c2=O)nc2c(C(=O)N[C@H]3C[C@@H]3OC)cnn12` [I-1270], the Kd was 1 to 10 nM.

`CNc1cc(Nc2cccn(C3CC(F)(F)C3)c2=O)nc2c(C(=O)N[C@@H]3CC[C@@H]3O)cnn12` [I-1391] came in with a Kd of under 0.2 nM.

Turning to `CNc1cc(Nc2cccn([C@H]3CCC[C@@H](C#N)C3)c2=O)nc2c(C(=O)N[C@@H]3C[C@@H]3F)cnn12` [I-1220], the Kd lay in the range of 0.2 to 1 nM.

As to `CNc1cc(Nc2cccn(C(C)C)c2=O)nc2c(C(=O)N[C@@H]3CCC[C@@](C)(O)C3)cnn12` [I-1337], the Kd was under 0.2 nM.

As for `CNc1cc(-c2cn(C(C)C)c3ncc(F)cc23)nc2c(C(=O)N[C@@H]3CC[C@H]3OC)cnn12` [I-1392], the Kd is 0.2 to 1 nM.

`CNc1cc(Nc2cccn([C@@H]3C[C@H]3F)c2=O)nc2c(C(=O)NCC(C)(C)CO)cnn12` [I-1399] showed a Kd of 1 to 10 nM.

Take `CNc1cc(-c2cn(CCCO)c3ncc(F)cc23)nc2c(C(=O)N[C@H]3CC[C@@H]3OC)cnn12` [I-1298]: the Kd is over 10 nM.

Consider `CNc1cc(-c2cn(CCCO)c3ncccc23)nc2c(C(=O)N[C@H]3CC[C@@H]3OC)cnn12` [I-1300], for which the Kd lay in the range of 1 to 10 nM.

Turning to `CNc1cc(Nc2cccn([C@H]3CCC[C@H](OC)C3)c2=O)nc2c(C(=O)N[C@H]3CC[C@@H]3OC)cnn12` [I-1375], the Kd lay in the range of 1 to 10 nM.

With `CNc1cc(Nc2cccn([C@H]3C[C@@H]3F)c2=O)nc2c(C(=O)N[C@@H]3CC[C@H]3O)cnn12` [I-1279], the Kd is under 0.2 nM.

`CNc1cc(Nc2cccn(C(C)C)c2=O)nc2c(C(=O)N[C@@H]3CCC[C@@](C)(OC)C3)cnn12` [I-1235] showed a Kd of under 0.2 nM.

`CNc1cc(Nc2cccn([C@H]3CC[C@@H](OC)CC3)c2=O)nc2c(C(=O)N[C@H]3CC[C@@H]3O)cnn12` [I-1291] showed a dissociation constant Kd of 1 to 10 nM.

`CNC(=O)c1occc1Nc1cc(NC)n2ncc(C(=O)N[C@@H]3CC[C@H]3OC)c2n1` [I-1322] registered a Kd of under 0.2 nM.

Turning to `CNc1cc(-c2cn([C@H]3CCCOC3)c3ncccc23)nc2c(C(=O)N[C@H]3COC[C@H]3O)cnn12` (mixture of isomers) [I-1251, N-(4-hydroxytetrahydrofuran-3-yl)-7-(methylamino)-5-(1-((S)-tetrahydro-2H-pyran-3-yl)-1H-pyrrolo[2,3-b]pyridin-3-yl)pyrazolo[1,5-a]pyrimidine-3-carboxamide], the Kd was 1 to 10 nM.

`CNc1cc(Nc2cccn([C@H]3CC[C@H]3O)c2=O)nc2c(C(=O)N[C@@H]3CC[C@H]3OC)cnn12` [I-1344]: the Kd lay in the range of 0.2 to 1 nM.

Compound `CNc1cc(Nc2cccn(C(C)C)c2=O)nc2c(C(=O)N[C@@H]3CCC[C@@](C)(O)C3)cnn12` [I-1243] showed a Kd of 1 to 10 nM.

`CNc1cc(-c2cn(C3CCOCC3)c3ncccc23)nc2c(C(=O)N[C@H]3CC[C@@H]3O)cnn12` [I-1405] yielded a Kd of 1 to 10 nM.

On to `CNc1cc(Nc2cccn(C3CC(F)(F)C3)c2=O)nc2c(C(=O)N[C@@H]3CC[C@@H](OC)C3)cnn12` [I-1210], for which the Kd lay within 0.2 to 1 nM.

In the case of `CNc1cc(Nc2cccn([C@H]3CCC[C@@H](C#N)C3)c2=O)nc2c(C(=O)N[C@@H]3C[C@@H]3F)cnn12` [I-1360], the Kd is under 0.2 nM.

As to `CNc1cc(-c2cn(C3CC3)c3ncccc23)nc2c(C(=O)N[C@H]3COC[C@H]3O)cnn12` [I-1356], the Kd was under 0.2 nM.

In turn, `CNc1cc(Nc2cc(C(F)(F)F)cn(-c3cnn(C)c3)c2=O)nc2c(C(=O)NC3CC3)cnn12` [I-523] displayed a Kd of 0.2 to 1 nM.

Consider `CNc1cc(Nc2cccn([C@H]3CCCOC3)c2=O)nc2c(C(=O)N[C@@H]3CCC[C@@](C)(OC)C3)cnn12` [I-1237], for which the Kd is over 10 nM.
